US20060025434A1, “Therapeutic agents for drug/substance dependence” (Toray Industries, Inc., priority 2003, published 2006)

Test system: SD male rats
Experiment: Conditioned place preference (CPP) test: recovery after acquisition of methamphetamine-induced psychological dependence
Format: in vivo
Conditions: 0.3 mg/kg subcutaneous twice per day, after methamphetamine (2.0 mg/kg s.c.) conditioning
Excerpt: Effect of Compound 1 in Promoting the Recovery Process after Acquisition of Psychological Dependence by a Stimulant Drug (Therapeutic Effect for Stimulant Drug Dependence)
The effect of compound 1 in promoting recovery during the convalescence after the acquisition of psychological dependence by a stimulant drug was discussed using the conditioned place preference method (Suzuki, T., et al., Psychopharmacology, 102, 438, 1990; Spyraki, C., The Psychopharmacology of Addiction, p. 96, Oxford Medical Publication, New York, 1988; hereinafter called “CPP method”). As a stimulant drug forming psychological dependence, methamphetamine hydrochloride was used. Furthermore, as a therapeutic agent for drug dependence, compound 1 was used.
For the experiment, SD male rats were used. The experimental apparatus used was a CPP apparatus having two compartments (one black, the other white). In the experiment, at first, the rats were trained for being conditioned with the sensory effect of the drug and the environments (white and black) in the apparatus for 6 days. The conditioned rats were placed and tested in the apparatus without drug administration. The drug dependence was evaluated with the residence time of the rats in the white and black boxes in the test session, as an indicator, in reference to whether the rats preferred the drug-induced sensory effect. […]

Oc1ccc2c3c1O[C@H]1c4c(c5cc(F)cc6c5n4CCC6)C[C@@]4(O)[C@@H](C2)N(CC2CC2)CC[C@]314 [Compound 1]
recovery from the state of stimulant drug dependence (CPP residence time) (7th day after start of administration, significance level 5% or less vs solvent): significant recovery | recovery from the state of stimulant drug dependence (CPP residence time) (from the 4th day after start of administration): apparent recovery
